For assay [1], the system named is Ileum. As to the kind of experiment: Contractile activity in guinea pig ileum at 232 ug/ml relative to histamine. Type of assay: functional, Cavia porcellus.
Assay [2] deals with Ileum. Nature of the assay: Inhibition of electrically-stimulated contraction in guinea pig ileum at 232 ug/ml. Type of assay: functional. As to conditions: Cavia porcellus.
For assay [3], the system named is Ileum. Nature of the assay: Contractile activity in guinea pig ileum at 67 ug/ml relative to histamine. The format is functional, Cavia porcellus.
The subject of assay [4] is Ileum. Nature of the assay: Inhibition of electrically-stimulated contraction in guinea pig ileum at 67 ug/ml. As to conditions: Cavia porcellus. Type of assay: functional.
The subject of assay [5] is Ileum. Nature of the assay: Inhibition of electrically-stimulated contraction in guinea pig ileum at 1200 ug/ml. Type of assay: functional. As to conditions: Cavia porcellus.
Assay [6] deals with Ileum. As to the kind of experiment: Contractile activity in guinea pig ileum at 1200 ug/ml relative to histamine. Type of assay: functional, Cavia porcellus.
Assay [7] deals with Ileum. As to the kind of experiment: Inhibition of electrically-stimulated contraction in guinea pig ileum at 200 ug/ml. As to conditions: Cavia porcellus. The format is functional.
Assay [8] concerns Ileum. As to the kind of experiment: Contractile activity in guinea pig ileum at 200 ug/ml relative to histamine. Type of assay: functional, Cavia porcellus.
Assay [9] has as its system Ileum. As to the kind of experiment: Inhibition of electrically-stimulated contraction in guinea pig ileum at 50 ug/ml. The format is functional. As to conditions: Cavia porcellus.
Assay [10] deals with Ileum. Nature of the assay: Contractile activity in guinea pig ileum at 50 ug/ml relative to histamine. Type of assay: functional, Cavia porcellus.
The test system of assay [11] is Ileum. Nature of the assay: Inhibition of electrically-stimulated contraction in guinea pig ileum at 15 ug/ml. The format is functional. The conditions noted are these: Cavia porcellus.
The subject of assay [12] is Ileum. Nature of the assay: Contractile activity in guinea pig ileum at 15 ug/ml relative to histamine. The format is functional, Cavia porcellus.

Consider `Cn1c(=N)ccn([C@H]2C[C@H](O)[C@@H](CO)O2)c1=O`, for which the Activity with Ileum [1] turned out to be 60%. This molecule came in with an inhibition at 232 µg/mL in the assay on Ileum [2] of 0%.

In turn, `Cn1c(=N)ccn([C@@H]2O[C@H](CO)[C@@H](O)[C@H]2O)c1=O` came in with an Activity in the assay on Ileum [3] of 60%. This molecule also had an inhibition at 67 µg/mL in the assay with Ileum [4] of 0%.

Molecule `Nc1ccn([C@H]2C[C@H](O)[C@@H](CO)O2)c(=O)n1` [DOXECITINE] yielded an inhibition at 1200 µg/mL in the assay on Ileum [5] of 27%. Moreover, the Activity in the assay with Ileum [6] is 0%.

In the assay on Ileum [7], `O=c1[nH]cnc2c1ncn2[C@@H]1O[C@H](CO)[C@@H](O)[C@H]1O` [INOSINE] came in with an inhibition at 200 µg/mL of 23%. In the assay on Ileum [8], the Activity came to 0%.

Molecule `O=c1ccn([C@@H]2O[C@H](CO)[C@@H](O)[C@H]2O)c(=O)[nH]1` [URIDINE] came in with an inhibition at 1200 µg/mL in the assay with Ileum [5] of 83%. Further, the Activity with Ileum [6] stood at 0%.

`Cn1c(=O)ccn([C@H]2C[C@H](O)[C@@H](CO)O2)c1=O` registered an inhibition at 50 µg/mL in the assay with Ileum [9] of 0%. In the assay with Ileum [10], the Activity was determined as 0%.

With `N=C(N)NCCC[C@@H]1NC(=O)/C(=C/c2c[nH]c3cc(Br)ccc23)NC1=O` [BARETTIN], in the assay on Ileum [11], 15 µg/mL produced 62% inhibition. Further, in the assay on Ileum [12], the Activity is reported as 0%.

Take `Nc1ncnc2c1ncn2[C@@H]1O[C@H](CO)[C@@H](O)[C@H]1O` [ADENOSINE]: in the assay with Ileum [11], the inhibition at 15 µg/mL turned out to be 85%. In the assay with Ileum [12], this molecule gave an Activity of 0%.

In the assay with Ileum [5], `Nc1ccn([C@@H]2O[C@H](CO)[C@@H](O)[C@H]2O)c(=O)n1` [CYTIDINE] had an inhibition at 1200 µg/mL of 0%. The Activity in the assay with Ileum [6] is 0%.

A word on the inhibition: it is the percentage by which the read-out fell short of the control. A low value points to little suppression.

(Values after ChEMBL document CHEMBL1151127, “Studies of Swedish Marine Organisms, Part X. Biologically Active Compounds from the Marine Sponge Geodia baretti” (1988).)
